Reference: patent EP2826473A1, “NOVEL USE OF PATCHOULOL” (Chengdu Huasun Group Inc., Ltd., priority 2012, dated 2013)
Like-named read-outs stand apart in the source and are kept apart here.

Experiments:
Assay type in all cases: cell-based
[1] = test system: Staphylococcus epidermidis ATCC 12228; test: in vitro bacteriostatic activity, agar dilution MIC, quality control strain; settings: ATCC12228; Staphylococcus epidermidis ATCC 12228; read-out: MIC
[2] = test system: Enterococcus faecium; test: in vitro bacteriostatic activity, agar dilution MIC; settings: Enterococcus faecium, read-out: MIC
[3] = test system: Staphylococcus aureus MSSA; test: as above; settings: Staphylococcus aureus, MSSA, read-out: MIC
[4] = test system: Streptococcus pneumoniae; test: as above
[5] = test system: Enterococcus faecalis; test: as above; settings: Enterococcus faecalis, read-out: MIC
[6] = test system: Staphylococcus epidermidis MSSE; test: as above; settings: Staphylococcus epidermidis, read-out: MIC

Measured: MIC

CC1(C)S[C@@H]2[C@H](NC(=O)Cc3ccccc3)C(=O)N2[C@H]1C(=O)O [penicillin, Benzylpenicillin sodium]
0.06 mg/L: [6]; Staphylococcus epidermidis MSSE 12-12 | [6]; Staphylococcus epidermidis MSSE 12-16 | [6]; Staphylococcus epidermidis MSSE 12-18 | [6]; Staphylococcus epidermidis MSSE 12-19
0.05 mg/L: [4]; Streptococcus pneumonia 12-6 | [4]; Streptococcus pneumoniae 12-5
8 mg/L: [6]; Staphylococcus epidermidis MSSE 12-14 | [6]; Staphylococcus epidermidis MSSE 12-15
0.2 mg/L: [4]; ATCC49619, Streptococcus pneumonia ATCC 49619 | [4]; Streptococcus pneumonia 12-10 | [4]; Streptococcus pneumoniae 12-2
0.5 mg/L: [1] | [3]; Staphylococcus aureus MSSA 12-11 | [3]; Staphylococcus aureus MSSA 12-13 | [3]; Staphylococcus aureus MSSA 12-14 | [3]; Staphylococcus aureus MSSA 12-16 | [3]; Staphylococcus aureus MSSA 12-20 | [6]; Staphylococcus epidermidis MSSE 12-13
128 mg/L: [2]; Enterococcus faecium 12-7 | [2]; Enterococcus faecium 12-9 | [2]; Enterococcus faecium 12-11 | [2]; Enterococcus faecium 12-15 | [2]; Enterococcus faecium 12-16
0.125 mg/L: [3]; Staphylococcus aureus MSSA 12-17
2 mg/L: [2]; ATCC33186, Enterococcus faecium ATCC 33186 | [5]; Enterococcus faecalis 12-17 | [5]; Enterococcus faecalis 12-18 | [5]; Enterococcus faecalis 12-19 | [5]; Enterococcus faecalis 12-20 | [5]; Enterococcus faecalis 12-21
0.03 mg/L: [6]; Staphylococcus epidermidis MSSE 12-11 | [6]; Staphylococcus epidermidis MSSE 12-17 | [6]; Staphylococcus epidermidis MSSE 12-20
0.4 mg/L: [4]; Streptococcus pneumoniae 12-4
0.1 mg/L: [4]; Streptococcus pneumonia 12-7 | [4]; Streptococcus pneumonia 12-8 | [4]; Streptococcus pneumonia 12-9 | [4]; Streptococcus pneumoniae 12-1 | [4]; Streptococcus pneumoniae 12-3
1 mg/L: [5]; ATCC29212, Enterococcus faecalis ATCC 29212 | [5]; ATCC51299, Enterococcus faecalis (high endurance) ATCC 51299 | [5]; Enterococcus faecalis 12-12 | [5]; Enterococcus faecalis 12-14 | [5]; Enterococcus faecalis 12-22
> 128 mg/L: [2]; Enterococcus faecium 12-8 | [2]; Enterococcus faecium 12-10 | [2]; Enterococcus faecium 12-12 | [2]; Enterococcus faecium 12-13 | [2]; Enterococcus faecium 12-14 | [5]; Enterococcus faecalis 12-11
32 mg/L: [5]; Enterococcus faecalis 12-13
0.25 mg/L: [3]; Staphylococcus aureus MSSA 12-15 | [3]; Staphylococcus aureus MSSA 12-18 | [3]; Staphylococcus aureus MSSA 12-19 | [3]; Staphylococcus aureus MSSA 12-21
